Structures are written as SMILES.

A short description of the data set: Human HepG2 cell viability assay in 384 well format. Type of data set: toxicity, cell-based. Also on record: dose 125 nL, time 70.5 hour; concentration not given beside the values. The conditions noted are these: HepG2 cells, read-out: Inhibition.
For the compound `CC(C)OCCCNC(=O)CN1CCN(c2nccs2)CC1`, the cytotoxicity at 70.5 h is -4.41%.
Then `Cn1nnnc1SCCNC(=O)C1CCN(C(=O)C2CC2)CC1`, with 24.5%; and `CC(C)CCc1noc(C[S+]([O-])CC(=O)NCc2ccccc2)n1` (stereo unspecified), with -1.48%.
The value for `CC1CCN(C(=O)Cn2nc(Br)nc2Br)CC1` was -5.71%; that for `O=C(c1cnco1)N1C[C@@H]2CC[C@H](Oc3ccccc3F)[C@@H]2C1` was 40.3%.
In the case of `Cc1nc(CNC(=O)CCN2CCN(c3ccccc3)CC2)oc1C`, the cytotoxicity at 70.5 h was 2.07%.
The value for `COc1ccc(-c2nnc(CNCCn3cc(C)cn3)o2)cc1` was 14.6%.
As for `CC(C)c1nc(C2CCCN2C(=O)c2ccc(N(C)C)nn2)no1` (stereo unspecified), the cytotoxicity at 70.5 h was determined as 7.67%.
Take `CNC(=O)C1(CCCc2ccccn2)CN(Cc2scnc2C)C1`: the cytotoxicity at 70.5 h amounted to 27.6%.
The value for `CCn1ccc(-c2cc(C(=O)O)n3nc(C)c(Cl)c3n2)n1` was -9.11%.
With `CN1CCN(Cc2ccccc2CNC(=O)c2ccc(Br)cc2)CC1`, the cytotoxicity at 70.5 h is -7.15%.
Then `CN(C)c1ccc(C(=O)N2CCN(C(=O)N3CCCCC3)CC2)nn1`, with -18.5%; and `Cn1nnc2cc(C(=O)NS(=O)(=O)c3ccc(F)cc3)ccc21`, with -3.7%; and `Cc1csc(CNC(=O)NCC(O)c2ccc(F)cc2)n1` (stereo unspecified), with -12.5%.
As to `O=C(Nc1ccccc1F)C1=NOC2(CCNCC2)C1`, the cytotoxicity at 70.5 h was -2.62%.
Then `O=C(c1cnn(-c2ccccc2Cl)c1)N1CCN(CCO)CC1`, with -5.36%; and `CCC(CO)N(C/C(C)=C/c1ccco1)Cc1ccco1` (stereo unspecified), with -3.88%; and `CN(Cc1nnc(C2CC2)n1C)C1CCN(Cc2ccon2)C1` (stereo unspecified), with -12.4%.
Regarding `CC(NCc1cccs1)c1ccc(OCc2nccn2C)cc1` (stereo unspecified), the cytotoxicity at 70.5 h was -4.31%.
The value for `CCN1CCn2c(C)cnc2C12CCN(C(=O)c1cscn1)CC2` was 4.22%; that for `Cc1nc(C)n(CC2CCCCN2CC(=O)NCc2ccccn2)n1` (stereo unspecified) was 2.56%; that for `Cc1cccc(C)c1OCCNC(=O)CN1CCN(C)CC1C` (stereo unspecified) was 16.7%.
Then `CC(=O)Nc1nc(C)c(S(=O)(=O)NCCc2ccccn2)s1`, with -3.16%.
The value for `CC(C)(NCc1cccc(C#N)c1)c1ccc2c(c1)OCO2` was -9.81%; that for `CNc1cc(C(=O)N(C)Cc2cc(-c3cccs3)n[nH]2)ccn1` was 0.513%.
Consider `CN(C)C(=O)N1C[C@@H]2CC[C@H](C1)N(C(=O)c1c(Cl)cccc1Cl)C2`, for which the cytotoxicity at 70.5 h was -13.7%.
The value for `O=C(NCC(O)C1CC1)Nc1cnn(Cc2ccccc2)c1` (stereo unspecified) was -7.29%; that for `Cc1cnn(CCNc2nc(C)cc(N(C)C)n2)c1` was 11.4%; that for `CC(C)NCc1cc2n(n1)CCN(C1CCCCC1)C2` was 9.14%.
For `O=C(c1ccc(Cl)cc1)N1CCC(N2CCNC2=O)CC1`, the cytotoxicity at 70.5 h is -3.41%.
Then `CN(C)CC(=O)N1CCN(c2cc(N3CCCC3CO)ncn2)CC1` (stereo unspecified), with -6.08%.
The value for `CS(=O)(=O)NCc1cncc2c1CCN(C(=O)c1ccccn1)C2` was -12.5%; that for `O=C(N[C@@H]1CNCCC[C@H]1O)c1ccc(OCCN2CCOCC2)cc1` was 1.5%; that for `O=C(NC1CC1)[C@H]1CN(Cc2ccccc2)C[C@@H]1C(=O)c1ccccc1` was -3.57%.
The value for `Cn1cccc1-c1cc(C(=O)N2CCCCC2c2ccc(F)cc2)[nH]n1` (stereo unspecified) was -3.93%; that for `Cc1noc(C(C)N2CCN(Cc3ccco3)CC2)n1` (stereo unspecified) was -11.9%; that for `CC(CN1CCOCC1)OC(=O)c1ccccc1I` (stereo unspecified) was -15.6%.
Take `Cc1ccc(NC(=O)c2n[nH]c(-n3cnnc3)n2)cc1`: the cytotoxicity at 70.5 h is -8.15%.
Then `Cc1nc(CN2CCN(c3nc4c(s3)c(C)nn4C)CC2)cs1`, with -3.02%.
The value for `CCc1n[nH]c(C2CN(C(=O)c3cc(C4CC4)on3)CCO2)n1` (stereo unspecified) was -5.69%; that for `CCc1noc(CS(=O)(=O)Cc2nc(Cc3ccccc3)no2)n1` was -5.38%; that for `CN1CCN(C(=O)[C@H]2C[C@H]3[C@H](CCN3Cc3cccs3)O2)CC1` was -2.03%.
Turning to `CC(=O)NCCCNC(=O)Nc1ccccc1-n1nc(C)cc1C`, the cytotoxicity at 70.5 h is 0.874%.
The value for `O=C(C1CCCC1)N1CCCC(c2cccc(-n3ccnc3)n2)C1` (stereo unspecified) was 16.6%; that for `O=C(c1ccsc1)N1CCO[C@@H]2CN(Cc3cccs3)C[C@@H]2C1` was -6.05%.
The value for `Cc1ccc(CNCc2c[nH]nc2C(C)(C)C)c(OC2CCOC2)c1` (stereo unspecified) was -5.05%; that for `CS(=O)(=O)N1CCO[C@@H]2CN(C(=O)C3CCOC3)CC[C@@H]2C1` (stereo partly specified) was -6.14%; that for `Cc1ccc(-c2c[nH]c([C@@H]3COCCN3Cc3ncc[nH]3)n2)cc1` was 6.46%.
Then `CCCc1ccc2oc(C(=O)N3CCN(CCOC)CC3)c(C)c2c1`, with -2.68%; and `COC(=O)CCN1CCCC1c1cccc2c1OCCO2` (stereo unspecified), with -6.05%.
For `CC(C)c1noc(C(C)N2CCN(CCN3CCCC3=O)CC2)n1` (stereo unspecified), the cytotoxicity at 70.5 h was -11.8%.
For the compound `CCc1nc(CCNC(=O)NC2CCN(C(C)C)C2)sc1C` (stereo unspecified), the cytotoxicity at 70.5 h was -3.64%.
`CSCCC1c2nc[nH]c2CCN1Cc1[nH]c2ccc(F)cc2c1C` (stereo unspecified): the cytotoxicity at 70.5 h came to 10.9%.
Then `COc1cccc(CC(=O)NCCc2nnc3n2CCCCC3)c1`, with 18.7%; and `O=C(NCC1CCCO1)c1coc(Cn2cnc3ccccc32)n1` (stereo unspecified), with -4.46%.
Then `CCn1nc(CNC(=O)C2CCCN(C(=O)COC)C2)c2ccccc21` (stereo unspecified), with -5.41%; and `CC(=O)c1cc(CC(=O)NCc2ccc(CN(C)C)cc2)cs1`, with -7.31%.
The value for `O=C(Cn1cncn1)NCC1(O)CCCc2ccccc21` (stereo unspecified) was 23.9%; that for `Cc1nc(N(C)C)ncc1C(=O)N[C@H]1Cc2ccccc2[C@@H]1N` was -5.1%.
With `Cc1ccccc1C1(CNC(=O)NC(C)c2nncn2C)CC1` (stereo unspecified), the cytotoxicity at 70.5 h is -2.77%.
As to `COC(=O)c1cc(C(=O)N2CCOCC2(C)C)n(-c2ccccc2)n1`, the cytotoxicity at 70.5 h is -0.593%.
As for `Cc1cnn(C2CCCN(C(=O)c3ccc(-n4cnnn4)cc3)C2)c1` (stereo unspecified), the cytotoxicity at 70.5 h was 0.981%.
The value for `Cc1cc(=O)n(CCNC(=O)c2ccccc2Cl)cn1` was 4.36%; that for `CCC(O)CN(C)Cc1nnc2ccccn12` (stereo unspecified) was 9.61%.
Then `COCC[C@]1(O)CCN(CC(=O)NCc2ccccn2)C[C@H]1C`, with 5.51%; and `O=C(Cn1nnc(-c2ccc(F)cc2)n1)N1CCOCC(O)C1` (stereo unspecified), with -1.8%.
Consider `O=C(NCC1CCCO1)c1cc(-c2cccnc2)c2cnccc2n1` (stereo unspecified), for which the cytotoxicity at 70.5 h is -3.09%.
Then `Cc1cnc2c(c1NCc1cccnc1)c(=O)n(C)c(=O)n2C`, with -0.599%; and `Cn1c(Cn2ccnc2)nnc1C1CCN(C(=O)c2ccoc2)CC1`, with -7.81%.
For the compound `CN1CCC2(CC1)CN(C(=O)c1ccncc1)Cc1ccccc12`, the cytotoxicity at 70.5 h was -2.21%.
Then `Cc1ccccc1CN1CCN(Cc2nccn2C)CC1`, with -8.12%.

Source of the values: ChEMBL document CHEMBL3507680, “University of Dundee, Gates Library screen for HepG2 cell viability”.
